Test results from patent US12365655B2, “Compounds” (CTXT PTY LTD, priority 2018, dated 2025).
Structures can show the parent of a compound that is named as a salt.

How the values were obtained:
TIP60-KAT5 = TIP60-KAT5 (Homo sapiens, UniProt Q92993); experiment: Acetyltransferase biochemical assay (AlphaScreen), KAT5
HBO-KAT7 = HBO-KAT7 (Homo sapiens, UniProt O95251); experiment: Acetyltransferase biochemical assay (AlphaScreen), KAT7
MOZ-KAT6A = MOZ-KAT6A (Homo sapiens, UniProt Q92794, A567V); experiment: Acetyltransferase biochemical assay (AlphaScreen), KAT6A
Chain of MOZ-KAT6A (Q92794 with tags, fused parts or gaps A567V): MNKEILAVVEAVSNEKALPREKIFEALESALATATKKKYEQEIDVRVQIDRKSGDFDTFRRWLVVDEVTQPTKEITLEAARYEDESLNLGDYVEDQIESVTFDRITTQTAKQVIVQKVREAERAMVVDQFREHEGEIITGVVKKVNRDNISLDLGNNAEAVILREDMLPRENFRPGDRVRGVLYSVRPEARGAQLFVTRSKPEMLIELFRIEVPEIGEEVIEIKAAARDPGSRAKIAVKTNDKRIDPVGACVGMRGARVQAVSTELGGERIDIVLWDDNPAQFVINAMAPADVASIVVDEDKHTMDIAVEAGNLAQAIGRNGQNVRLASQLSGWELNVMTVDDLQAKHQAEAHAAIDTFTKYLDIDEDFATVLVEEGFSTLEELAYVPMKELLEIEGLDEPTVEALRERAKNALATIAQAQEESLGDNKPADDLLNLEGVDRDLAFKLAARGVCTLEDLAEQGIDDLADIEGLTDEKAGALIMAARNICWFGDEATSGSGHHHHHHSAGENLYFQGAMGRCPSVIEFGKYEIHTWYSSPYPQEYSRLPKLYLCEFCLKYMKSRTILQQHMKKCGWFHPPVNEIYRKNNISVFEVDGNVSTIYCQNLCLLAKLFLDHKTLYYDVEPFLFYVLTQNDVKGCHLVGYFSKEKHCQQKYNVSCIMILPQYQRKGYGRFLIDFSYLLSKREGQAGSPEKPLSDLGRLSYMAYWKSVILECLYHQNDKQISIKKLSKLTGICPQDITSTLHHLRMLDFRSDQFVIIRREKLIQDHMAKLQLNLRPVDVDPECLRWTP

Chain of HBO-KAT7 (O95251 with tags, fused parts or gaps): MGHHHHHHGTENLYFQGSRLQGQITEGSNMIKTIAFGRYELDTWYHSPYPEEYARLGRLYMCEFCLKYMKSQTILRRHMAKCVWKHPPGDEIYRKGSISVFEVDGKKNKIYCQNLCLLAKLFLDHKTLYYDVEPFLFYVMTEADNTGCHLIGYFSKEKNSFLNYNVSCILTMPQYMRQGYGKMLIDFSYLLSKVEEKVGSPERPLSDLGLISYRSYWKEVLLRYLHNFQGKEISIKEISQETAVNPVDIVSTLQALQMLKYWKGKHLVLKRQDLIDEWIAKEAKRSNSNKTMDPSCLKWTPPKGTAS
Chain of TIP60-KAT5 (Q92993 with tags, fused parts or gaps isoform Q92993-2): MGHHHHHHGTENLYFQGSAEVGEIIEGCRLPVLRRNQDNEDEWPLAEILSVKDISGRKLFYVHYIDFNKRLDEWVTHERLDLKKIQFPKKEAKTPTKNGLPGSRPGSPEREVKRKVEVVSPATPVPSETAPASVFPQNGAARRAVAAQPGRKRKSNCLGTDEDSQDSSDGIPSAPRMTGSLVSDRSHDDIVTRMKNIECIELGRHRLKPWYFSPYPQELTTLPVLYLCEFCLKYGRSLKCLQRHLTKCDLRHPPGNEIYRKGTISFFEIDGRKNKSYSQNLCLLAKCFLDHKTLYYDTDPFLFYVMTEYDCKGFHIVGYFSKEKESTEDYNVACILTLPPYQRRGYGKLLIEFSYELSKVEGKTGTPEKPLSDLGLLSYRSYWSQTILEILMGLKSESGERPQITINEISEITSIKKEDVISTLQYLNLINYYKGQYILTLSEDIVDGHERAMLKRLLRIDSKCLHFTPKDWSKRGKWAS

| Compound | IC50 (TIP60-KAT5) [µM] | IC50 (HBO-KAT7) [µM] | IC50 (MOZ-KAT6A) [µM] |
| --- | --- | --- | --- |
| CCc1ccc(OC)c(S(=O)(=O)Nc2noc3cc(-n4cccn4)ccc23)c1 [Example 131] | 69.7 | 23.8 | 3.11 |
| O=S(=O)(Nc1noc2cccc(Cl)c12)c1ccc(Br)cc1OC(F)(F)F [Example 32, 4-bromo-N-(4-chlorobenzo[d]isoxazol-3-yl)-2-(trifluoromethoxy) benzenesulfonamide] | 56 | 14.9 | 31.1 |
| O=S(=O)(Nc1noc2cccc(Cl)c12)c1ccc2c(c1)CCC2 [Example 44, N-(4-chlorobenzo [d]isoxazol-3-yl)-2,3-dihydro-1H-indene-5-sulfonamide] | 60.2 | 10.8 | 10.6 |
| COc1ccccc1S(=O)(=O)Nc1noc2ccccc12 [Example 58, N-(benzo[d]isoxazol-3-yl)-2-methoxybenzene sulfonamide] | > 125 | 16.6 | 28.4 |
| COc1ccc(C(C)(C)C)cc1S(=O)(=O)Nc1noc2cccc(Cl)c12 [Example 40, 5-(tert-butyl)-N-(4-chlorobenzo[d]isoxazol-3-yl)-2-methoxy benzenesulfonamide] | 121 | 19.9 | 2.13 |
| O=S(=O)(Nc1noc2cccc(Cl)c12)c1cccc2cccnc12 [Example 123, N-(4-chlorobenzo[d]isoxazol-3-yl)quinoline-8-sulfonamide] | 59.4 | 4.2 | 26.9 |
| COc1cccc2onc(NS(=O)(=O)c3ccc4c(c3)CCCC4)c12 [Example 84, N-(4-methoxybenzo[d]isoxazol-3-yl)-5,6,7,8-tetrahydro-naphthalene-2-sulfonamide] | 50.5 | 20 | 18.7 |
| COCc1cccc(S(=O)(=O)Nc2noc3cccc(Cl)c23)c1 [Example 2, N-(4-chlorobenzo [d]isoxazol-3-yl)-3-(methoxymethyl) benzenesulfonamide] | > 125 | 15.5 | 94.6 |
| O=S(=O)(Nc1noc2ccccc12)c1ccc2c(c1)CCCC2 [Example 65, N-(benzo[d]isoxazol-3-yl)-5,6,7,8-tetrahydro-naphthalene-2-sulfonamide] | > 125 | 59.7 | 27.9 |
| COc1ccc(C)cc1S(=O)(=O)Nc1noc2ccccc12 [Example 47, N-(benzo[d]isoxazol-3-yl)-2-methoxy-5-methyl benzene sulfonamide] | 123 | 29.4 | 12.9 |
| O=S(=O)(Nc1noc2cccc(Cl)c12)c1cccc2nsnc12 [Example 7, N-(4-chlorobenzo [d]isoxazol-3-yl)benzo[c][1,2,5]thiadiazole-4-sulfonamide] | > 125 | 14.2 | 62.7 |
| O=S(=O)(Nc1noc2cccc(Cl)c12)c1c(F)cccc1F [Example 29, N-(4-chlorobenzo [d]isoxazol-3-yl)-2,6-difluorobenzene sulfonamide] | > 125 | 94.1 | > 125 |
| CCc1ccc(OC)c(S(=O)(=O)Nc2noc3cc(-n4ccnn4)ccc23)c1 [Example 125] | > 125 | 85.8 | 24.5 |
| CCc1ccc(OC)c(S(=O)(=O)Nc2noc3cc(C)ccc23)c1 [Example 193, 5-Ethyl-2-methoxy-N-(6-methylbenzo[d]isoxazol-3-yl)benzenesulfonamide] | 53.1 | 15.5 | 1.95 |
| COc1cccc2onc(NS(=O)(=O)c3c(C)ccc4cccnc34)c12 [Example 77, N-(4-methoxybenzo[d]isoxazol-3-yl)-7-methyl quinoline-8-sulfonamide] | 51.8 | 12 | 10.8 |
| COc1cccc(OC)c1S(=O)(=O)Nc1noc2cc(-n3nc(C)cc3C)ccc12 [Example 105] | > 125 | 63.2 | 2.9 |
| COCc1ccc2c(NS(=O)(=O)c3c(OC)cccc3OC)noc2c1 [Example 103, 2,6-Dimethoxy-N-(6-(methoxymethyl)benzo [d]isoxazol-3-yl)benzenesulfonamide] | 69.3 | 5.93 | 0.81 |
| COc1cc(CN)cc(OC)c1S(=O)(=O)Nc1noc2cccc(OC)c12 [Example 210, 4-(Aminomethyl)-2,6-dimethoxy-N-(4-methoxybenzo[d]isoxazol-3-yl)benzenesulfonamide hydrochloride] | > 125 | 6.54 | 8.53 |
| O=S(=O)(Nc1noc2ccccc12)c1ccc(Br)cn1 [Example 68, N-(benzo[d]isoxazol- -3-yl)-5-bromopyridine-2-sulfonamide] | > 125 | > 125 | 85.1 |
| COc1cccc2onc(NS(=O)(=O)c3cc(C)cc4cccnc34)c12 [Example 78, N-(4-methoxybenzo[d]isoxazol-3-yl)-6-methyl quinoline-8-sulfonamide] | > 125 | > 125 | 93.8 |
| Cc1c(Cl)cccc1S(=O)(=O)Nc1noc2ccccc12 [Example 59, N-(benzo[d]isoxazol-3-yl)-3-chloro-2-methylbenzene-sulfonamide] | > 125 | > 125 | 49.4 |
| COc1ccc(F)cc1S(=O)(=O)Nc1noc2cccc(Cl)c12 [Example 5, N-(4-chlorobenzo [d]isoxazol-3-yl)-5-fluoro-2-methoxybenzene sulfonamide] | 114 | 6.01 | 31.3 |
| COc1ccccc1S(=O)(=O)Nc1noc2cccc(F)c12 [Example 156] | > 125 | 1.97 | 1.54 |
| O=S(=O)(Nc1noc2cccc(Cl)c12)c1ccc(OC(F)F)cc1 [Example 34, N-(4-chlorobenzo [d]isoxazol-3-yl)-4-(difluoromethoxy) benzenesulfonamide] | > 125 | 31.5 | > 125 |
| CCc1ccc(OC)c(S(=O)(=O)Nc2noc3cc(-c4ncccn4)ccc23)c1 [Example 126, 5-Ethyl-2-methoxy-N-(6-(pyrimidin-2-yl)benzo[d]isoxazol-3-yl)benzenesulfonamide] | 51.3 | 28.9 | 10.5 |
| Cc1ccc(Br)cc1S(=O)(=O)Nc1noc2cccc(Cl)c12 [Example 114, 5-Bromo-N-(4-chlorobenzo[d]isoxazol-3-yl)-2-methylbenzenesulfonamide] | 59.4 | 41.6 | 29.3 |

Other lines, results leading:

| IC50 (TIP60-KAT5) [µM] | IC50 (HBO-KAT7) [µM] | IC50 (MOZ-KAT6A) [µM] | Compound |
| --- | --- | --- | --- |
| 35.2 | 5.17 | 6.22 | O=S(=O)(Nc1noc2cccc(Cl)c12)c1ccccc1Oc1ccccc1 [Example 4, N-(4-chlorobenzo [d]isoxazol-3-yl)-2-phenoxybenzene sulfonamide] |
| 17.9 | 3.79 | 13.6 | COc1cccc2onc(NS(=O)(=O)c3cccc4cccnc34)c12 [Example 83, N-(4-methoxybenzo[d]isoxazol-3-yl)quinoline-8-sulfonamide] |
| 47 | 0.473 | 1.16 | COc1cc(C#N)cc(-c2cc(OC)c3c(NS(=O)(=O)c4c(OC)cccc4OC)noc3c2)c1 [Example 251] |
| 4.73 | 0.678 | 0.364 | CCc1ccc(OC)c(S(=O)(=O)Nc2noc3cccc(C4CC4)c23)c1 [Example 200] |
| 6.3 | 0.618 | 0.25 | CCc1ccc(OC)c(S(=O)(=O)Nc2noc3ccc(Br)c(Cl)c23)c1 [Example 128, N-(5-bromo-4-chlorobenzo[d]isoxazol-3-yl)-5-ethyl-2-methoxy benzenesulfonamide] |
| 6.36 | 0.626 | 0.302 | CCc1ccc(OC)c(S(=O)(=O)Nc2noc3ccc(CC)c(Cl)c23)c1 [Example 206] |
| 30.2 | 9.63 | 15.1 | O=S(=O)(Nc1noc2cccc(Cl)c12)c1cccc2nonc12 [Example 16, N-(4-chlorobenzo [d]isoxazol-3-yl)benzo[c][1,2,5]oxadiazole-4-sulfonamide] |
| 9.7 | 5.74 | 2.1 | COc1ccc(Oc2ccccc2)cc1S(=O)(=O)Nc1noc2cccc(OC)c12 [Example 99, 2-Methoxy-N-(4-methoxybenzo[d]isoxazol-3-yl)-5-phenoxybenzenesulfonamide] |
| 17.5 | 4.06 | 13.9 | COc1cccc2onc(NS(=O)(=O)c3cccc4c(C)ccnc34)c12 [Example 79, N-(4-methoxybenzo[d]isoxazol-3-yl)-4-methyl quinoline-8-sulfonamide] |
| 49.7 | 9.49 | 9.16 | O=S(=O)(Nc1noc2cccc(Cl)c12)c1cc(Br)cc2c1OCC2 [Example 127, 5-bromo-N-(4-chlorobenzo[d]isoxazol-3-yl)-2,3-dihydrobenzofuran-7-sulfonamide] |
| 14.2 | 6.56 | 8.58 | CCc1ccc(OC)c(S(=O)(=O)Nc2noc3c(Br)cccc23)c1 [Example 137] |
| 4.05 | 0.507 | 0.437 | CCc1ccc(OC)c(S(=O)(=O)Nc2noc3ccc(C)c(Cl)c23)c1 [Example 153] |
| 47.8 | 9.9 | 2.26 | CCc1ccc(OC)c(S(=O)(=O)Nc2noc3cc(-c4ccccn4)ccc23)c1 [Example 140, 5-Ethyl-2-methoxy-N-(6-(pyridin-2-yl)benzo[d]isoxazol-3-yl)benzenesulfonamide] |
| 28.5 | 4.65 | 1.63 | CCc1ccc(OC)c(S(=O)(=O)Nc2noc3ccc(C4CC4)c(OC)c23)c1 [Example 208] |
| 16.5 | 3.01 | 1.46 | CCOc1cccc2onc(NS(=O)(=O)c3cc(CC)ccc3OC)c12 [Example 112] |
| 37.8 | 6.87 | 1.51 | CCc1ccc(OC)c(S(=O)(=O)Nc2noc3cc(CC)ccc23)c1 [Example 194] |
